Results: PubChem BioAssay AID330 (DTP/NCI, 2004)
“And” between values parts separate entries of the source, which are not always exact repeats. Identical values can stand only once. Toxic doses and inconclusive results are not listed.

Test system: P388 leukemia ip, CD2F1 mice, survival T/C
Test: NCI In Vivo Anticancer Drug Screen. Data for tumor model P388 Leukemia (intraperitoneal) in CD2F1 (CDF1) mice
Settings: endpoint: median survival time, higher = longer survival
How it was run: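 Mice carrying the transplanted tumor received test compound or vehicle. Survival was recorded in each group, and the value is the treated-group measurement divided by that of the vehicle-treated control group.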

[1] = dose: 100.0 mg/kg/injection, schedule: Q01DX009 (ip), vehicle: saline with Tween-80
[2] = dose: 50.0 mg/kg/injection, schedule: Q01DX009 (ip), vehicle: saline with Tween-80
[3] = dose: 50.0 mg/kg/injection, schedule: Q01DX009 (ip), vehicle: Klucel (hydroxypropylcellulose) (HPC)
[4] = dose: 100.0 mg/kg/injection, schedule: Q01DX009 (ip), vehicle: Klucel (hydroxypropylcellulose) (HPC)
[5] = dose: 200.0 mg/kg/injection, schedule: Q01DX009 (ip), vehicle: Klucel (hydroxypropylcellulose) (HPC)
[6] = dose: 100.0 mg/kg/injection, schedule: Q04DX003 (ip), vehicle: Klucel (hydroxypropylcellulose) (HPC)
[7] = dose: 200.0 mg/kg/injection, schedule: Q04DX003 (ip), vehicle: Klucel (hydroxypropylcellulose) (HPC)
[8] = dose: 400.0 mg/kg/injection, schedule: Q04DX003 (ip), vehicle: Klucel (hydroxypropylcellulose) (HPC)
[9] = dose: 60.0 mg/kg/injection, schedule: Q01DX005 (ip), vehicle: saline with Tween-80
[10] = dose: 120.0 mg/kg/injection, schedule: Q01DX005 (ip), vehicle: saline with Tween-80

N#CO
T/C [1]: 90 % of control

CCSC(C(O)C(O)C(O)C(O)CO)n1cnc2c(=S)nc[nH]c21 (stereo not given)
T/C (dose: 25.0 mg/kg/injection, schedule: Q01DX009 (ip), vehicle: water): 97 % of control
T/C (dose: 50.0 mg/kg/injection, schedule: Q01DX009 (ip), vehicle: water): 94 % of control
T/C (dose: 100.0 mg/kg/injection, schedule: Q01DX009 (ip), vehicle: water): 105 % of control
T/C (dose: 200.0 mg/kg/injection, schedule: Q01DX009 (ip), vehicle: water): 105 % of control
T/C (dose: 400.0 mg/kg/injection, schedule: Q01DX009 (ip), vehicle: water): 96 % of control

[B-][N+](C)(C)Cc1ccccc1
T/C (dose: 12.5 mg/kg/injection, schedule: Q01DX009 (ip), vehicle: saline with Tween-80): 90 % of control
T/C (dose: 25.0 mg/kg/injection, schedule: Q01DX009 (ip), vehicle: saline with Tween-80): 90 % of control
T/C [2]: 109 % of control

CCNc1cc(N)[n+](CC)c2n[nH]c(N)c12
T/C (dose: 50.0 mg/kg/injection, schedule: Q01DX005 (ip), vehicle: saline): 112 % of control
T/C (dose: 100.0 mg/kg/injection, schedule: Q01DX005 (ip), vehicle: saline): 111 % of control

NCCN1C(=O)c2ccccc2C1(O)c1ccc(Cl)cc1 (stereo not given)
T/C [3]: 102 % of control
T/C [4]: 97 % of control
T/C [5]: 98 % of control

CCOC(=O)C1=C(NC(=O)Nc2ccccc2)N(C(=O)Nc2ccccc2)CCC1
T/C [6]: 100 % of control
T/C [7]: 99 % of control
T/C [8]: 102 % of control

[Cu+2].c1nn[nH]n1
T/C (dose: 12.5 mg/kg/injection, schedule: Q04DX003 (ip), vehicle: Klucel (hydroxypropylcellulose) (HPC)): 93 % of control
T/C (dose: 25.0 mg/kg/injection, schedule: Q04DX003 (ip), vehicle: Klucel (hydroxypropylcellulose) (HPC)): 97 % of control
T/C (dose: 50.0 mg/kg/injection, schedule: Q04DX003 (ip), vehicle: Klucel (hydroxypropylcellulose) (HPC)): 95 % of control

CCOC(=O)C(Br)CN1C(=O)c2ccccc2C1=O (stereo not given)
T/C [9]: 97 % of control
T/C [10]: 115 % of control

Cc1noc(NS(=O)(=O)c2ccc(N=Nc3cc(N=Nc4ccc(S(=O)(=O)Nc5onc(C)c5C)cc4)c4c(NC(=O)C(Cl)Cl)cccc4c3OC(=O)C(Cl)Cl)cc2)c1C (tested in a mixture with another compound)
T/C [2]: 100 % of control and 106 % of control
T/C [1]: 104 % of control and 106 % of control

O=S(=O)(Cc1ccccc1)Oc1ccccc1
T/C [6]: 109 % of control
T/C [7]: 103 % of control
T/C [8]: 94 % of control

CC1=CC2OC3C(OC(=O)CCCCl)C(OC(=O)CCCCl)C(C)(C2(CO)CC1)C31CO1 (stereo not given)
T/C (dose: 4.0 mg/kg/injection, schedule: Q01DX009 (ip), vehicle: saline with Tween-80): 152 % of control
T/C (dose: 8.0 mg/kg/injection, schedule: Q01DX009 (ip), vehicle: saline with Tween-80): 172 % of control

O=C(N=C1C(=O)C2(CCCCC2)C2(N=C(c3ccccc3)OC2=O)C12CCCCC2)c1ccccc1 (stereo not given)
T/C [9]: 107 % of control
T/C [10]: 100 % of control
T/C (dose: 240.0 mg/kg/injection, schedule: Q01DX005 (ip), vehicle: saline with Tween-80): 100 % of control

CCCCCCCCCCCCOP(=O)(CC(=O)NCc1cc(C(C)(C)C)c(O)c(C(C)(C)C)c1)OCCCCCCCCCCCC
T/C [2]: 92 % of control
T/C [1]: 92 % of control
T/C (dose: 200.0 mg/kg/injection, schedule: Q01DX009 (ip), vehicle: saline with Tween-80): 90 % of control

CCNc1nc(N)nc(N)n1
T/C (dose: 50.0 mg/kg/injection, schedule: Q01DX009 (ip), vehicle: saline): 102 % of control and 103 % of control and 104 % of control
T/C (dose: 50.0 mg/kg/injection, schedule: Q04DX002 (ip), vehicle: saline): 107 % of control
T/C (dose: 100.0 mg/kg/injection, schedule: Q01DX009 (ip), vehicle: saline): 100 % of control and 102 % of control and 112 % of control
T/C (dose: 100.0 mg/kg/injection, schedule: Q04DX002 (ip), vehicle: saline): 98 % of control
T/C (dose: 200.0 mg/kg/injection, schedule: Q01DX009 (ip), vehicle: saline): 100 % of control and 110 % of control and 120 % of control
T/C (dose: 200.0 mg/kg/injection, schedule: Q04DX002 (ip), vehicle: saline): 98 % of control
T/C (dose: 400.0 mg/kg/injection, schedule: Q01DX009 (ip), vehicle: saline): 102 % of control and 110 % of control

CC(=O)NNC(=O)Nc1ccc(Cl)c(Cl)c1
T/C [3]: 108 % of control
T/C [4]: 103 % of control
T/C [5]: 91 % of control
